Assays:
Assay in all cases: biochemical
Set-up in all cases: DiscoverX KinomeScan competition binding assay across human kinases; per cent of control at 10 and 100 uM
[1] = target: T1, YSK1 (Homo sapiens, UniProt O00506); conditions: competition binding, % of control; read-out: Percent Control (100 uM Levosimendan)
T1 construct: gene STK25
In short: (§1)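 KinomeScan competition binding was run across a human kinase panel at 10 μM and 100 μM levosimendan. Results are %control = (test − positive control)/(negative control − positive control) × 100.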

[2] = target: CAMK1D (Homo sapiens, UniProt Q8IU85); conditions: competition binding, % of control; read-out: Percent Control (100 uM Levosimendan)
In short: as §1

[3] = target: WNK3 (Homo sapiens, UniProt Q9BYP7); conditions: competition binding, % of control; read-out: Percent Control (100 uM Levosimendan)
In short: as §1

[4] = target: MET(M1250T) (Homo sapiens, UniProt P08581, M1250T); conditions: competition binding, % of control; read-out: Percent Control (100 uM Levosimendan)
In short: as §1

[5] = target: T2, DCAMKL1 (Homo sapiens, UniProt O15075); conditions: competition binding, % of control; read-out: Percent Control (100 uM Levosimendan)
T2 construct: gene DCLK1
In short: as §1

[6] = target: BTK (Homo sapiens, UniProt Q06187); conditions: competition binding, % of control; read-out: Percent Control (100 uM Levosimendan)
In short: as §1

[7] = target: T3, NIK (Homo sapiens, UniProt Q99558); conditions: competition binding, % of control; read-out: Percent Control (100 uM Levosimendan)
T3 construct: gene MAP3K14
In short: as §1

[8] = target: T4, BRK (Homo sapiens, UniProt Q13882); conditions: competition binding, % of control; read-out: Percent Control (100 uM Levosimendan)
T4 construct: gene PTK6
In short: as §1

[9] = target: T5, PRKR (Homo sapiens, UniProt P19525); conditions: competition binding, % of control; read-out: Percent Control (100 uM Levosimendan)
T5 construct: gene EIF2AK2
In short: as §1

[10] = target: PLK4 (Homo sapiens, UniProt O00444); conditions: competition binding, % of control
In short: as §1

[11] = target: NEK4 (Homo sapiens, UniProt P51957); conditions: competition binding, % of control; read-out: Percent Control (100 uM Levosimendan)
In short: as §1

[12] = target: AURKC (Homo sapiens, UniProt Q9UQB9); conditions: competition binding, % of control; read-out: Percent Control (100 uM Levosimendan)
In short: as §1

[13] = target: CSNK1A1L (Homo sapiens, UniProt Q8N752); conditions: competition binding, % of control; read-out: Percent Control (100 uM Levosimendan)
In short: as §1

[14] = target: PIK3CA(C420R) (Homo sapiens, UniProt P42336, C420R); conditions: competition binding, % of control; read-out: Percent Control (100 uM Levosimendan)
In short: as §1

[15] = target: MTOR (Homo sapiens, UniProt P42345); conditions: competition binding, % of control; read-out: Percent Control (100 uM Levosimendan)
In short: as §1

[16] = target: T6, SNARK (Homo sapiens, UniProt Q9H093); conditions: competition binding, % of control; read-out: Percent Control (100 uM Levosimendan)
T6 construct: gene NUAK2
In short: as §1

[17] = target: T7, p38-delta (Homo sapiens, UniProt O15264); conditions: competition binding, % of control; read-out: Percent Control (100 uM Levosimendan)
T7 construct: gene MAPK13
In short: as §1

[18] = target: PIK3CA(Q546K) (Homo sapiens, UniProt P42336, Q546K); conditions: competition binding, % of control; read-out: Percent Control (100 uM Levosimendan)
In short: as §1

[19] = target: WNK4 (Homo sapiens, UniProt Q96J92); conditions: competition binding, % of control; read-out: Percent Control (100 uM Levosimendan)
In short: as §1

PLK4, sequence (O00444 whole entry): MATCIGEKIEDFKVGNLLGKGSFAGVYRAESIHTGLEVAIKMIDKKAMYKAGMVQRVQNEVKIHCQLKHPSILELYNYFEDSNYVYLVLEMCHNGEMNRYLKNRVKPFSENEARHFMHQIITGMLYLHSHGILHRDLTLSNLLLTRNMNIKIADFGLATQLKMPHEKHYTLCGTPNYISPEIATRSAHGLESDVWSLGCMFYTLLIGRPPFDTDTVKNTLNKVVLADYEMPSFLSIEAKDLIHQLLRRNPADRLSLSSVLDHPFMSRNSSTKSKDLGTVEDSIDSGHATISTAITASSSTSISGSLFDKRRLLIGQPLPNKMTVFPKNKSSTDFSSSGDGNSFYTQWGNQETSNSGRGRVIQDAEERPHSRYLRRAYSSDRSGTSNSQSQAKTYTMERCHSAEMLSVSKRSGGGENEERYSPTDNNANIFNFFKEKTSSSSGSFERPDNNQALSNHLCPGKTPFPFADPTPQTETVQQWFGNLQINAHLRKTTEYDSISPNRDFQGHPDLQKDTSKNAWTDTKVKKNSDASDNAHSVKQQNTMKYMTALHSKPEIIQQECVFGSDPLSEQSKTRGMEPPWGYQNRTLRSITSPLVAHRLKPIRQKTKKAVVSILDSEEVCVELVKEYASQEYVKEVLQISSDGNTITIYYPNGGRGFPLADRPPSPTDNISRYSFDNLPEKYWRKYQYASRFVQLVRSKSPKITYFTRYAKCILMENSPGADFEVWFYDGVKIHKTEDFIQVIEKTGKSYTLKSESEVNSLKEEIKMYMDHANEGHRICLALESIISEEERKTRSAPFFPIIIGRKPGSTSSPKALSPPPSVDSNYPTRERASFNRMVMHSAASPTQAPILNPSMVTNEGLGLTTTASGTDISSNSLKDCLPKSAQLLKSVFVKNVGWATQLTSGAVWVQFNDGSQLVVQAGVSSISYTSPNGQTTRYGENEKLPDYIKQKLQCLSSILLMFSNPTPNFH
T6 sequence (Q9H093 whole entry): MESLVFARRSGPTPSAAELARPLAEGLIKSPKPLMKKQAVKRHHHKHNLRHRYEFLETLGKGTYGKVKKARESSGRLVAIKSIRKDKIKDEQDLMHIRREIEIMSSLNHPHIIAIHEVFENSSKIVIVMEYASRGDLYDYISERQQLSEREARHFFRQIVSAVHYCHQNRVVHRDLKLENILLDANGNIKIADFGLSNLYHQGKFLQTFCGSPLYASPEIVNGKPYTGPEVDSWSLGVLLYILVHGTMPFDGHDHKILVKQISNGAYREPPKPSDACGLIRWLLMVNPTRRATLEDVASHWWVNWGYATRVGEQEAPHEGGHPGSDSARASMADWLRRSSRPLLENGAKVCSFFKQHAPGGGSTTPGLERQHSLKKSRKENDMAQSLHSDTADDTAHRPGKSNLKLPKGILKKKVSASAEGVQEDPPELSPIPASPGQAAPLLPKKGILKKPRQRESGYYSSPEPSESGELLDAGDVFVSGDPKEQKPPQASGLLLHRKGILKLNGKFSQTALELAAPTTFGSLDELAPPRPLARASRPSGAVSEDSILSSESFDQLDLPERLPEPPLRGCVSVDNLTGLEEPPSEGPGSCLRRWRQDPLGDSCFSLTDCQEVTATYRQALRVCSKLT
CAMK1D, sequence (Q8IU85 whole entry): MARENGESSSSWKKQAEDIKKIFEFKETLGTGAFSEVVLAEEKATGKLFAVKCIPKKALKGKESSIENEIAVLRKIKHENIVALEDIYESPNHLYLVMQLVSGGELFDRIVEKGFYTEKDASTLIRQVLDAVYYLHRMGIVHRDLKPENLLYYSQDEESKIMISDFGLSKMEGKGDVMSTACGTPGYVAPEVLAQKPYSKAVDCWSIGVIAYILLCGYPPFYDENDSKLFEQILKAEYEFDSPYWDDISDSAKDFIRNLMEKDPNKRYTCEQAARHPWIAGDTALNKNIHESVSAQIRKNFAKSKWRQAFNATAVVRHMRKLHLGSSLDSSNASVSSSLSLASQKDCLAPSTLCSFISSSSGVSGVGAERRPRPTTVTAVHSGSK
T2 sequence (O15075 whole entry): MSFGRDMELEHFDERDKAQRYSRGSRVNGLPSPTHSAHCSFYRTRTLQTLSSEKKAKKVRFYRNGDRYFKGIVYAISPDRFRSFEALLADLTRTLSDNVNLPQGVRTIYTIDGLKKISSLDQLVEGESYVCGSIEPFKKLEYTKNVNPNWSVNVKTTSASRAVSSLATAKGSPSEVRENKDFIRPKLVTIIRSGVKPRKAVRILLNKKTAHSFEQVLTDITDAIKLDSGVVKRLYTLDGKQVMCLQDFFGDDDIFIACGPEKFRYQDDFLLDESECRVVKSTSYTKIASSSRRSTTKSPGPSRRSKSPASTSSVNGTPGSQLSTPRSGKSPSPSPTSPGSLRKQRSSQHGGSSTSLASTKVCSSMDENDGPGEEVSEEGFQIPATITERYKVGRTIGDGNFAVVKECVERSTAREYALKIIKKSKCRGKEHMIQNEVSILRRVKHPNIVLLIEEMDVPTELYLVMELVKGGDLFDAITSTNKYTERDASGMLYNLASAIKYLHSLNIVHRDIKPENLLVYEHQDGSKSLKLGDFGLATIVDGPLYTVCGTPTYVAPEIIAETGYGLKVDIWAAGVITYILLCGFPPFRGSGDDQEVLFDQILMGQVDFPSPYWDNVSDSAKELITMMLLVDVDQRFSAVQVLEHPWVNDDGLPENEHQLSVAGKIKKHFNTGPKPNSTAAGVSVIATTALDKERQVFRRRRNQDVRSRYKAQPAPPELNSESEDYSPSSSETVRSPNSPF
AURKC, sequence (Q9UQB9 whole entry): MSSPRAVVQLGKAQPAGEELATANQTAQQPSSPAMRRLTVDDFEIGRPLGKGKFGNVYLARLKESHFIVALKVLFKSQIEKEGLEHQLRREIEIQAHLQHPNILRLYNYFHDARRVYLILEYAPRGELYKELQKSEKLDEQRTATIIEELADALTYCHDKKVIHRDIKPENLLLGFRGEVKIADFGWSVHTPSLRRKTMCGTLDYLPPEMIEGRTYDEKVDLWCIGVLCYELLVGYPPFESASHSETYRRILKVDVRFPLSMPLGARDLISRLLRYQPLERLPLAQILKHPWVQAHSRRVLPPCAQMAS
T3 sequence (Q99558 whole entry): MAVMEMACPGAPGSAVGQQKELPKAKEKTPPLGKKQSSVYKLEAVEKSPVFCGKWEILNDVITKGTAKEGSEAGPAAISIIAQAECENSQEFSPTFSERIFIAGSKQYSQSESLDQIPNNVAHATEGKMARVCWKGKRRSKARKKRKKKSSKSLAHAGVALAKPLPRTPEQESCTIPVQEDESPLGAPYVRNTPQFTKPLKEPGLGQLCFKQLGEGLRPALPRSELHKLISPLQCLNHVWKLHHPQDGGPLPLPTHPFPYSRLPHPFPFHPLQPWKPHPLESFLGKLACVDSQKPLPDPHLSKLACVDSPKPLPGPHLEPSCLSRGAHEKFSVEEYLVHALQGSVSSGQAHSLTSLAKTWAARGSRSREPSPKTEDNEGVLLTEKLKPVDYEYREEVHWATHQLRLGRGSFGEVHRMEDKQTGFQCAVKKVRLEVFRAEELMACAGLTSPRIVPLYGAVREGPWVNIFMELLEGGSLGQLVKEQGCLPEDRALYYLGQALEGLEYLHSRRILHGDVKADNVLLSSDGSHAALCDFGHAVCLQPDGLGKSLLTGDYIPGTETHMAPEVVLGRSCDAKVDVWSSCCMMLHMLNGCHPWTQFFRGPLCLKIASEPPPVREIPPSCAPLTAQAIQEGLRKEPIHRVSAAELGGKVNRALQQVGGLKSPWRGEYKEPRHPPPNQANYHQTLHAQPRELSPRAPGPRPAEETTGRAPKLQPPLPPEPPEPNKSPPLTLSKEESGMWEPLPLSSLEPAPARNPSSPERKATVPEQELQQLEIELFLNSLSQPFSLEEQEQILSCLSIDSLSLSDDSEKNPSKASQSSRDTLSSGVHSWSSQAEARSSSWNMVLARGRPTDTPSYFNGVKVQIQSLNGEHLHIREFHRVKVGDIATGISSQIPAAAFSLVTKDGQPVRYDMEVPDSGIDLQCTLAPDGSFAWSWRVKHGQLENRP
T7 sequence (O15264 whole entry): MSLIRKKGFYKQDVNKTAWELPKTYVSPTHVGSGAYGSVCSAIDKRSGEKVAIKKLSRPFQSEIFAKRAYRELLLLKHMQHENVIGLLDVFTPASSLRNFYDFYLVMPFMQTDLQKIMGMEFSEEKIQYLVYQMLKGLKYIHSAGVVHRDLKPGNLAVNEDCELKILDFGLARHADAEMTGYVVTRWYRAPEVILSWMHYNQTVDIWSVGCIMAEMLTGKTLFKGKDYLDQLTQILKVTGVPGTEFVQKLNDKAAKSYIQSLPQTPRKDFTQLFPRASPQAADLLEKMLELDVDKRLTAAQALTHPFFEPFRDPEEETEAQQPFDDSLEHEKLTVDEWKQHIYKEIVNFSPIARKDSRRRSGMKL
T4 sequence (Q13882 whole entry): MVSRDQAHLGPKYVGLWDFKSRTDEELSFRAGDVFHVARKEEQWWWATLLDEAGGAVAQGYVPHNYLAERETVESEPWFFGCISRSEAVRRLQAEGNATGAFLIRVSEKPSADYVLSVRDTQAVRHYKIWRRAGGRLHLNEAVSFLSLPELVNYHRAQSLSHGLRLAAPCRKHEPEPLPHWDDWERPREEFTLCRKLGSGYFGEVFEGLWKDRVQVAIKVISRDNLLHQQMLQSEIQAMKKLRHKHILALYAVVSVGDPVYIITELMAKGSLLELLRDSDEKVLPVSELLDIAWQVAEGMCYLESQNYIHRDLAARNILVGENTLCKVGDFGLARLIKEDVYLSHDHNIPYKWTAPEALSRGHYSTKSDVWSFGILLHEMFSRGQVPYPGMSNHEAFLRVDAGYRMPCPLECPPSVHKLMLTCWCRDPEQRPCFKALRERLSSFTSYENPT

- remaining binding at 100 µM [1]: 100%
- remaining binding at 100 µM [2]: 57%
- remaining binding at 100 µM [3]: 81%
- remaining binding at 100 µM [4]: 91%
- remaining binding at 100 µM [5]: 67%
- remaining binding at 100 µM [6]: 100%
- remaining binding at 100 µM [7]: 83%
- remaining binding at 100 µM [8]: 85%
- remaining binding at 100 µM [9]: 96%
- remaining binding at 10 µM ([10]; read-out: Percent Control (10 uM Levosimendan)): 100%
- remaining binding at 100 µM ([10]; read-out: Percent Control (100 uM Levosimendan)): 45%
- remaining binding at 100 µM [11]: 100%
- remaining binding at 100 µM [12]: 100%
- remaining binding at 100 µM [13]: 55%
- remaining binding at 100 µM [14]: 100%
- remaining binding at 100 µM [15]: 100%
- remaining binding at 100 µM [16]: 100%
- remaining binding at 100 µM [17]: 100%
- remaining binding at 100 µM [18]: 100%
- remaining binding at 100 µM [19]: 95%
Structure (SMILES): C[C@@H]1CC(=O)NN=C1c1ccc(NN=C(C#N)C#N)cc1 [levosimendan]

From paper PMC6576746, “Rational discovery of dual-indication multi-target PDE/Kinase inhibitor for precision anti-cancer therapy using structural systems pharmacology” (PLoS Computational Biology, 2019)
